Results: patent publication US5631293A, “Preparation of amino acid-substituted benzoylguanidines as diagnostic agents” (priority 1994, dated 1997)
Counter-ions that a name gives are not always drawn. One block for each compound: values may come before it.

Legend:
[1] = target: T1, Na+/H^+ exchanger of rabbit erythrocytes (Oryctolagus cuniculus, UniProt P23791); experiment: Inhibition of the Na+/H+ exchanger of rabbit erythrocytes (amiloride-sensitive Na+ influx, flame photometry); format: cell-based, rabbit (White New Zealand); details: cholesterol diet 2% six weeks, pH 7.4, 37° C
T1 construct: determine the Na^+ influx into the erythrocytes via Na^+ /H^+ exchange by flame photometry; endogenous in cells; host or cells: erythrocytes in blood from the ear arteries of cholesterol-fed White New Zealand rabbits (Ivanovas)
T1 sequence (P23791 whole entry): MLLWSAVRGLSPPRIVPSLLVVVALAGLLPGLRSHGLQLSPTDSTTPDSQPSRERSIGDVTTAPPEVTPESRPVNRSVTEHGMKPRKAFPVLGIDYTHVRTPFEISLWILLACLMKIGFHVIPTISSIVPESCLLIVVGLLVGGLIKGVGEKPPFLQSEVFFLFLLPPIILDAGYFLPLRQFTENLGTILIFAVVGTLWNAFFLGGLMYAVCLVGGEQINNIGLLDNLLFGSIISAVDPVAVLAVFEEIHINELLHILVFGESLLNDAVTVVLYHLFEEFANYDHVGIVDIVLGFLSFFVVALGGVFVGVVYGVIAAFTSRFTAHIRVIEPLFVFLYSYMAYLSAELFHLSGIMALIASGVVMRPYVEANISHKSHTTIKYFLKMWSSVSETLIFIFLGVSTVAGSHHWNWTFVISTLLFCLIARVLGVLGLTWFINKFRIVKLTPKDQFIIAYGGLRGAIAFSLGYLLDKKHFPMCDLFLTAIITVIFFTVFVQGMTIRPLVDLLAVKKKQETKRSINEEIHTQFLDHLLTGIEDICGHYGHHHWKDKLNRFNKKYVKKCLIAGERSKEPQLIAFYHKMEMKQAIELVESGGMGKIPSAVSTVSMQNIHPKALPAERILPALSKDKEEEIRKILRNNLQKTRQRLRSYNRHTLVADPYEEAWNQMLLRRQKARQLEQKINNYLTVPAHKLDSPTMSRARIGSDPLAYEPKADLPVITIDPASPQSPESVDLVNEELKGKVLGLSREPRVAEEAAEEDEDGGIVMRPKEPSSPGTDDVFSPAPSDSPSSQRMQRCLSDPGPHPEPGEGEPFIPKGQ
Description: Inhibition of the Na+/H^+ exchanger of rabbit erythrocytes
White New Zealand rabbits (Ivanovas) were given a standard diet with 2% of cholesterol for six weeks in order to activate the Na^+ /H^+ exchange and in this way to be able to determine the Na^+ influx into the erythrocytes via Na^+ /H^+ exchange by flame photometry. The blood was removed from the ear arteries and rendered noncoagulable by 25 IU of potassium-heparin. A portion of each sample was used for duplicate determination of the hematocrit by centrifugation. Aliquots of in each case 100 μl were used for measurement of the starting Na^+ content of the erythrocytes.
To determine the amiloride-sensitive sodium influx, 100 μl of each blood sample were incubated in 5 ml portions each of a hyperosmolar salt/sucrose medium (mmol/l: 140 NaCl, 3 KCl, 150 sucrose, 0.1 ouabain, 20 tris-hydroxymethylaminomethane) at pH 7.4 and 37° C. The erythrocytes were then washed three times with ice-cold MgCl2 /ouabain solution (mmol/l: 112 MgCl2, 0.1 ouabain) and hemolyzed in 2.0 ml of distilled water. The intracellular sodium content was determined by flame photometry.
The Na^+ net influx was calculated from the difference between the starting sodium values and the sodium content of the erythrocytes after incubation. The sodium influx which can be inhibited by amiloride resulted from the difference between the sodium content of the erythrocytes after incubation with and without 3×10^-4 mol/l of amiloride. This procedure was also followed with compounds according to the invention.

[2] = test system: artificially induced ventricular fibrillation on rat hearts; details: isolated rat hearts, cited from earlier work
[3] = test system: disturbances in cardiac rhythm; details: Circulation 79, 1257-63 (1989); cited from earlier work

- IC50 [1]: 1000 nM
SMILES: CS(=O)(=O)c1cc(C(=O)N=C(N)N)ccc1Oc1ccc(C[C@H](N)C(=O)O)cc1 [Example 2, 4-[(4-Guanidinocarbonyl-2-methylsulfonyl)phenoxy]phenylalanine]

SMILES: CCN(c1nc(N)c(C(=O)N=C(N)N)nc1Cl)C(C)C [ethylisopropylamiloride]
- potency against ventricular fibrillation compared with amiloride ([2]; relative to amiloride): even more potent than amiloride

SMILES: NC(N)=NC(=O)c1nc(Cl)c(N)nc1N [amiloride]
- suppression of artificially induced ventricular fibrillation [2]: suppressed completely
- antiarrhythmic effect [3]: only weak
- side-effects accompanying the antiarrhythmic effect [3]: antihypertensive and saluretic action

- IC50 [1]: 26 nM
SMILES: NC(N)=NC(=O)c1ccc(Oc2ccc(CC(N)C(=O)O)cc2)c(C(F)(F)F)c1 (stereo not shown) [Example 4, 4-[(4-Guanidinocarbonyl-2-trifluoromethyl)phenoxy]phenylalanine, dihydrochloride]

SMILES: CC(C)(C)OC(=O)N[C@@H](Cc1ccc(Oc2ccc(C(=O)N=C(N)N)cc2S(C)(=O)=O)cc1)C(=O)O [Example 1, N-tert-Butoxycarbonyl-4-[(4-guanidinocarbonyl-2-methylsulfonyl)phenoxy]-phenylalanine]
- IC50 [1]: 430 nM
